pIC50: −log10 of the molar value. Counter-ions that a name gives are not always drawn.
Each compound was assayed on IL-2 production (assay: Inhibition of IL-2 production in PHA-activated Jurkat cells (ELISA)). Settings: Homo sapiens, Jurkat, 20 h, Jurkat cells, PHA 2.5 μg/mL, 20 hours, IL-2 ELISA; read-out: IC50 (inhibition of IL-2 production).
Assay type: cell-based, human
Procedure: Jurkat cells were placed in a 96 well plate (0.5 million cells per well in 1% FBS medium) then a test compound of this invention was added at different concentrations. After 10 minutes, the cells were activated with PHA (final concentration 2.5 μg/mL) and incubated for 20 hours at 37° C. under CO2. The final volume was 200 μL. Following incubation, the cells were centrifuged and the supernatants collected and stored at −70° C. prior to assaying for IL-2 production. A commercial ELISA kit (IL-2 Eli-pair, Diaclone Research, Besancon, France) was used to detect production of IL-2, from which dose response curves were obtained. The IC50 value was calculated as the concentration at which 50% of maximum IL-2 production after stimulation was inhibited versus a non-stimulation control.

Row | Compound | pIC50
1 | COc1ccc(-c2cccs2)cc1-c1ccc(NC(=O)c2ccncc2C)cc1 [Compound 52, 3-Methyl-N-[5′-(thien-2-yl)-2′-methoxy-biphenyl-4-yl]-isonicotinamide] | 7.46
2 | Cc1ccc(-c2cocn2)cc1-c1ccc(NC(=O)c2ccncc2F)cc1 [Compound 78, 3-Fluoro-N-[2′-methyl-5′-(oxazol-4-yl)-biphenyl-4-yl]-isonicotinamide] | 8.05
3 | Cc1cnccc1C(=O)Nc1ccc(-c2cc(-c3nnn[nH]3)ccc2C)cc1 [Compound 44, 3-Methyl-N-[2′-methyl-5′-(1H-tetrazol-5-yl)-biphenyl-4-yl]-isonicotinamide] | < 6.00
4 | COc1ncc(Cl)cc1-c1ccc(NC(=O)c2ccncc2F)cc1 [Compound 19, 3-Fluoro-N-[4-(5-chloro-2-methoxy-pyridin-3-yl)-phenyl]-isonicotinamide] | 7.72
5 | Cc1cnccc1C(=O)Nc1ccc(-c2cc(-c3ccno3)ccc2C)cc1 [Compound 32, 3-Methyl-N-[5′-(isoxazol-5-yl)-2′-methyl-biphenyl-4-yl]-isonicotinamide] | 8.40
6 | Cc1cnccc1C(=O)Nc1ccc(-c2cc(-c3cnco3)ccc2C)cc1 [Compound 26, 3-Methyl-N-[5′-(oxazol-5-yl)-2′-methyl-biphenyl-4-yl]-isonicotinamide] | 8.30
7 | CSc1nnc(-c2ccc(C)c(-c3ccc(NC(=O)c4c(F)cncc4F)cc3)c2)n1C [Compound 75, 3,5-Difluoro-N-[2′-methyl-5′-(4-methyl-5-methylsulfanyl-4H-[1,2,4]triazol-3-yl)-biphenyl-4-yl]-isonicotinamide] | < 6.00
8 | Cc1cc(-c2ccc(C)c(-c3ccc(NC(=O)c4c(F)cccc4F)cc3)c2)[nH]n1 [Compound 37, 2,6-Difluoro-N-[2′-methyl-5′-(3-methyl-1H-pyrazol-5-yl)-biphenyl-4-yl]-benzamide] | 7.96
9 | Cc1ccc(N2CCOCC2)cc1-c1ccc(NC(=O)c2c(F)cccc2F)cc1 [Compound 43, 2,6-Difluoro-N-[2′-methyl-5′-(morpholino-4-yl)-biphenyl-4-yl]-benzamide] | 7.59
10 | Cc1ccc(-c2nnc(N(C)C)s2)cc1-c1ccc(NC(=O)c2c(F)cccc2F)cc1 [Compound 64, 2,6-Difluoro-N-{2′-methyl-5′-[5-(N,N-dimethylamino)-[1,3,4]thiadiazol-2-yl]-biphenyl-4-yl}-benzamide] | 7.28
11 | Cc1ccc(-c2nccs2)cc1-c1ccc(NC(=O)c2ccncc2F)cc1 [Compound 54, 3-Fluoro-N-[5′-(thiazol-2-yl)-2′-methyl-biphenyl-4-yl]-isonicotinamide] | 7.92
12 | O=C(Nc1ccc(-c2cc(-c3ncco3)ccc2Cl)cc1)c1c(F)cncc1F [Compound 45, 3,5-Difluoro-N-[5′-(oxazol-2-yl)-2′-chloro-biphenyl-4-yl]-isonicotinamide] | 7.30
13 | Cc1cnccc1C(=O)Nc1ccc(-c2cc(-c3ncco3)ccc2N(C)C)cc1 [Compound 48, 3-Methyl-N-[5′-(oxazol-2-yl)-2′-(N,N-dimethylamino)-biphenyl-4-yl]-isonicotinamide] | 6.49
14 | Cc1ccc(-c2ccccn2)cc1-c1ccc(NC(=O)c2snnc2C)cc1 [Compound 24, 4-Methyl-[1,2,3]thiadazole-5-carboxylic acid [2′-methyl-5′-(pyridin-2-yl)-biphenyl-4-yl]-amide] | 7.82
15 | Cc1ccc(-c2ncnn2C)cc1-c1ccc(NC(=O)c2c(F)cccc2F)cc1 [Compound 66, 2,6-Difluoro-N-[2′-methyl-5′-(2-methyl-2H-[1,2,4]triazol-3-yl)-biphenyl-4-yl]-benzamide] | 8.10
16 | Cc1ccc(-c2nnc(N(C)C)s2)cc1-c1ccc(N(C)C(=O)c2c(F)cccc2F)cc1 [Compound 63, 2,6-Difluoro-N-{2′-methyl-5′-[5-(N,N-dimethylamino)-[1,3,4]thiadiazol-2-yl]-biphenyl-4-yl}-N-methyl-benzamide] | < 6.00
17 | Cc1ccc(-c2cocn2)cc1-c1ccc(NC(=O)c2c(F)cccc2F)cc1 [Compound 77, 2,6-Difluoro-N-[2′-methyl-5′-(oxazol-4-yl)-biphenyl-4-yl]-benzamide] | 8.00
18 | Cc1ccc(-c2ccc[nH]2)cc1-c1ccc(NC(=O)c2c(F)cccc2F)cc1 [Compound 41, 2,6-Difluoro-N-[2′-methyl-5′-(1H-pyrrol-2-yl)-biphenyl-4-yl]-benzamide] | 7.74

Further lines, results first:

Row | pIC50 | Compound
19 | 8.52 | Cc1ccc(-c2ccncc2)cc1-c1ccc(NC(=O)c2c(F)cccc2F)cc1 [Compound 30, 2,6-Difluoro-N-[2′-methyl-5′-(pyridine-4-yl)-biphenyl-4-yl]-benzamide]
20 | 8.52 | Cc1ccc(-c2nnco2)cc1-c1ccc(NC(=O)c2c(F)cncc2F)cc1 [Compound 68, 3,5-Difluoro-N-[2′-methyl-5′-([1,3,4]oxadiazol-2-yl)-biphenyl-4-yl]-isonicotinamide]
21 | 8.52 | Cc1ccc(-c2nncs2)cc1-c1ccc(NC(=O)c2c(F)cccc2F)cc1 [Compound 59, 2,6-Difluoro-N-[2′-methyl-5′-([1,3,4]thiadiazol-2-yl)-biphenyl-4-yl]-benzamide]
22 | 8.70 | Cc1cc(-c2ccc(C)c(-c3ccc(NC(=O)c4c(F)cccc4F)cc3)c2)on1 [Compound 35, 2,6-Difluoro-N-[2′-methyl-5′-(3-methyl-isoxazole-5-yl)-biphenyl-4-yl]-benzamide]
23 | 8.52 | COc1ccc(-c2cnco2)cc1-c1ccc(NC(=O)c2snnc2C)cc1 [Compound 25, 4-Methyl-[1,2,3]thiadiazole-5-carboxylic acid [2′-methoxy-5′-(oxazol-5-yl)-biphenyl-4-yl]-amide]
24 | 8.15 | Cc1ccc(-c2nccs2)cc1-c1ccc(NC(=O)c2c(F)cncc2F)cc1 [Compound 28, 3,5-Difluoro-N-[5′-(thiazol-2-yl)-2′-methyl-biphenyl-4-yl]-isonicotinamide]
25 | 8.52 | O=C(Nc1ccc(-c2cc(-c3nccs3)ccc2Cl)cc1)c1c(F)cncc1F [Compound 57, 3,5-Difluoro-N-[5′-(thiazol-2-yl)-2′-chloro-biphenyl-4-yl]-isonicotinamide]
26 | 8.22 | Cc1ccc(-c2nncs2)cc1-c1ccc(NC(=O)c2ccncc2F)cc1 [Compound 61, 3-Fluoro-N-[5′-([1,3,4]thiadiazol-2-yl)-2′-methyl-biphenyl-4-yl]-isonicotinamide]
27 | 8.22 | COc1ccc(-c2ncco2)cc1-c1ccc(NC(=O)c2c(F)cccc2F)cc1 [Compound 13, 2,6-Difluoro-N-(2′-methoxy-5′-oxazol-2-yl-biphenyl-4-yl)-benzamide]
28 | 8.70 | O=C(Nc1ccc(-c2cc(-c3nccs3)ccc2Cl)cc1)c1ccncc1F [Compound 58, 3-Fluoro-N-[5′-(thiazol-2-yl)-2′-chloro-biphenyl-4-yl]-isonicotinamide]
29 | 8.40 | COc1ccc(-c2cnco2)cc1-c1ccc(NC(=O)c2c(F)cccc2F)cc1 [Compound 27]
30 | 8.15 | Cc1ccc(-c2nccs2)cc1-c1ccc(NC(=O)c2snnc2C)cc1 [Compound 76, 4-Methyl-[1,2,3]thiadazole-5-carboxylic acid [2′-methyl-5′-(thiazol-2-yl)-biphenyl-4-yl]-amide]
31 | 8.22 | Cc1ccc(-c2cccnc2)cc1-c1ccc(NC(=O)c2snnc2C)cc1 [Compound 21, 4-Methyl-[1,2,3]thiadazole-5-carboxylic acid [2′-methyl-5′-(pyridin-3-yl)-biphenyl-4-yl]-amide]
32 | 8.30 | Cc1ccc(-c2ccccn2)cc1-c1ccc(NC(=O)c2c(F)cccc2F)cc1 [Compound 23, 2,6-Difluoro-N-[2′-methyl-5′-(pyridine-2-yl)-biphenyl-4-yl]-benzamide]
33 | 8.22 | O=C(Nc1ccc(-c2cc(-c3ncco3)ccc2Cl)cc1)c1c(F)cccc1F [Compound 31]
34 | 8.52 | Cc1ccc(-c2ncco2)cc1-c1ccc(NC(=O)c2c(F)cncc2F)cc1 [Compound 11, 3,5-Difluoro-N-(2′-methyl-5′-oxazol-2-yl-biphenyl-4-yl)-isonicotinamide]
35 | 8.30 | Cc1ccc(-c2nnco2)cc1-c1ccc(NC(=O)c2c(F)cccc2F)cc1 [Compound 69, 2,6-Difluoro-N-[2′-methyl-5′-([1,3,4]oxadiazol-2-yl)-biphenyl-4-yl]-benzamide]
36 | 8.52 | Cc1ccc(-c2ncco2)cc1-c1ccc(NC(=O)c2ccncc2F)cc1 [Compound 10, 3-Fluoro-N-(2′-methyl-5′-oxazol-2-yl-biphenyl-4-yl)-isonicotinamide]
37 | 8.15 | Cc1cnccc1C(=O)Nc1ccc(-c2cc(-c3ncco3)ccc2Cl)cc1 [Compound 17, 3-Methyl-N-(2′-chloro-5′-oxazol-2-yl-biphenyl-4-yl)-isonicotin-amide, hydrochloride]

Same assay, conditions: Homo sapiens; Jurkat cells, PHA 2.5 μg/mL, 20 hours, IL-2 ELISA; read-out: IC50 (inhibition of IL-2 production)

Row | Compound | pIC50
38 | Cc1cnccc1C(=O)Nc1ccc(-c2cc(-c3cnco3)ccc2C)cc1 [Compound 29, 3-Methyl-N-[5′-(oxazol-5-yl)-2′-methyl-biphenyl-4-yl]-isonicotinamide, HCl salt] | 8.05
39 | Cc1cnccc1C(=O)Nc1ccc(-c2cc(-c3ncco3)ccc2C)cc1 [Compound 7, 3-Methyl-N-(2′-methyl-5′-oxazol-2-yl-biphenyl-4-yl)-isonicotinamide, hydrochloride] | 8.10

Same assay, conditions: Jurkat cells, PHA 2.5 μg/mL, 20 hours, IL-2 ELISA; read-out: IC50 (inhibition of IL-2 production)

Row | Compound | pIC50
40 | Cc1cnccc1C(=O)Nc1ccc(-c2cc(-c3nccs3)ccc2C)cc1 [Compound 14, 3-Methyl-N-(2′-methyl-5′-thiazol-2-yl-biphenyl-4-yl)-isonicotin-amide] | 8.00
